Where “and” joins values, the source holds several entries; their conditions need not be identical. Equal entries are not always repeated. Where two headings read alike, the source gives them in different places.
Key:
[1] = system: Lepidium sativum L. roots; settings: 24 h incubation, mean(±SD), n = 3
[2] = system: Lepidium sativum L. seeds; settings: 24 h incubation, mean(±SD), n = 3
E. coli ATCC 8739 = experiment: Antimicrobial activity, broth microdilution MIC/MBC; format: cell-based, Escherichia coli; settings: nd—not detected; for MIC (%): E. coli ATCC 8739, 24 h at 37 °C, at least 90% growth inhibition; for MBC (%): E. coli ATCC 8739
C. albicans ATCC 10231 = experiment: as above; format: cell-based, Candida albicans; settings: C. albicans ATCC 10231, 24 h at 37 °C, at least 90% growth inhibition; nd—not detected
S. aureus ATCC 6538 = experiment: as above; format: cell-based, Staphylococcus aureus; settings: nd—not detected; for MIC (%): S. aureus ATCC 6538, 24 h at 37 °C, at least 90% growth inhibition
L929 fibroblasts = experiment: Mammalian cell cytotoxicity screening, resazurin viability; format: cell-based, mouse
[3] = 0.01% (w/w) compound in the medium
[4] = 0.03% (w/w) compound in the medium
[5] = 0.05% (w/w) compound in the medium
[6] = 0.10% (w/w) compound in the medium
[7] = 0.30% (w/w) compound in the medium
[8] = 0.50% (w/w) compound in the medium
[9] = 1.00% (w/w) compound in the medium
[10] = 2.00% (w/w) compound in the medium
[11] = 3.00% (w/w) compound in the medium
[12] = 4.00% (w/w) compound in the medium
[13] = 5.00% (w/w) compound in the medium

SMILES | Inhibition of the root growth in pregerminated Lepidium sativum seeds (IRG, %) [1, 3] | Inhibition of the root growth in pregerminated Lepidium sativum seeds (IRG, %) [1, 4] | Inhibition of the root growth in pregerminated Lepidium sativum seeds (IRG, %) [1, 5] | Inhibition of the root growth in pregerminated Lepidium sativum seeds (IRG, %) [1, 6] | Inhibition of the root growth in pregerminated Lepidium sativum seeds (IRG, %) [1, 7] | Inhibition of the root growth in pregerminated Lepidium sativum seeds (IRG, %) [1, 8] | Inhibition of the root growth in pregerminated Lepidium sativum seeds (IRG, %) [1, 9] | Inhibition of the root growth in pregerminated Lepidium sativum seeds (IRG, %) [1, 10] | Inhibition of the root growth in pregerminated Lepidium sativum seeds (IRG, %) [1, 11] | Inhibition of the root growth in pregerminated Lepidium sativum seeds (IRG, %) [1, 12] | Inhibition of the root growth in pregerminated Lepidium sativum seeds (IRG, %) [1, 13] | Inhibition of the Lepidium sativum seeds germination (ISG, %) [2, 3] | Inhibition of the Lepidium sativum seeds germination (ISG, %) [2, 4] | Inhibition of the Lepidium sativum seeds germination (ISG, %) [2, 5] | Inhibition of the Lepidium sativum seeds germination (ISG, %) [2, 6] | Inhibition of the Lepidium sativum seeds germination (ISG, %) [2, 7] | Inhibition of the Lepidium sativum seeds germination (ISG, %) [2, 8] | Inhibition of the Lepidium sativum seeds germination (ISG, %) [2, 9] | Inhibition of the Lepidium sativum seeds germination (ISG, %) [2, 10] | Inhibition of the Lepidium sativum seeds germination (ISG, %) [2, 11] | also measured
NCCCC[C@H](N)C(=O)O.OCCN(CCO)CCO [[TEA][Lys]] | 9.2(±1.9) % | 14.6(±2.1) % | 20.0(±1.9) % | 24.5(±1.9) % | 52.7(±1.7) % | 62.3(±1.2) % | 63.5(±0.9) % | 78.9(±0.8) % | 84.9(±0.8) % | 90.2(±0.6) % | 94.9(±0.5) % | 0.0(±0.0) % | 0.0(±0.0) % | 0.0(±0.0) % | 0.0(±0.0) % | 0.0(±0.0) % | 0.0(±0.0) % | 1.9(±0.8) % | 11.5% | 38.5% | Inhibition of the Lepidium sativum seeds germination (ISG, %) [2, 12]: 57.7(±3.1) %; MIC (%) (E. coli ATCC 8739): 0.94%; MBC (%) (E. coli ATCC 8739): 3.75%; MIC (%) (C. albicans ATCC 10231): 0.94%; MIC (%) (S. aureus ATCC 6538): 1.88%; ED20 (L929 fibroblasts; 24h exposure): 0.23±0.01%; ED50 (L929 fibroblasts; 24h exposure): 0.43±0.01%; ED80 (L929 fibroblasts; 24h exposure): 0.69±0.02%; ED20 (L929 fibroblasts; 48h exposure): 0.21±0.01%; ED50 (L929 fibroblasts; 48h exposure): 0.33±0.01%; ED80 (L929 fibroblasts; 48h exposure): 0.46±0.01%
N=C(N)NCCC[C@H](N)C(=O)O.OCCN(CCO)CCO [[TEA][Arg]] | 9.0(±1.9) % | 20.6(±1.8) % | 31.2(±1.9) % | 41.9(±1.3) % | 53.8(±1.3) % | 56.5(±1.4) % | 65.4(±1.0) % | 74.4(±0.7) % | 84.7(±0.6) % | 93.7(±0.5) % | 98.3(±0.3) % | 0.0(±0.0) % | 0.0(±0.0) % | 0.0(±0.0) % | 0.0(±0.0) % | 1.2(±0.8) % | 5.5(±0.5) % | 15.5(±0.5) % | 25.5(±2.1) % | 32.7% | Inhibition of the Lepidium sativum seeds germination (ISG, %) [2, 12]: 58.2(±1.2) %; MIC (%) (E. coli ATCC 8739): 3.75%; MBC (%) (E. coli ATCC 8739): 3.75%; MIC (%) (C. albicans ATCC 10231): 0.94%; MIC (%) (S. aureus ATCC 6538): 3.75%; MBC (%) (S. aureus ATCC 6538; S. aureus ATCC 6538): 3.75%
O=C(O)[C@@H]1CCCN1.OCCN(CCO)CCO [[TEA][Pro]] | 0.0(±0.0) % | 20.7(±2.1) % | 27.3(±2.2) % | 39.5(±1.9) % | 57.5(±1.5) % | 67.7(±1.1) % | 74.5(±1.2) % | 83.0(±0.7) % | 88.2(±0.6) % | 90.1(±0.8) % | 92.0(±0.7) % | 3.7(±0.5) % | 6.5(±0.5) % | 9.3(±0.5) % | 16.7(±0.8) % | 18.5(±0.5) % | 20.4(±1.3) % | 25.9(±1.3) % | 29.6(±0.9) % | 40.7(±0.5) % | Inhibition of the Lepidium sativum seeds germination (ISG, %) [2, 12]: 51.9(±0.5) %; Inhibition of the Lepidium sativum seeds germination (ISG, %) [2, 13]: 79.6(±0.5) %; MIC (%) (E. coli ATCC 8739): 7.50%; MBC (%) (E. coli ATCC 8739): 7.50%; MIC (%) (C. albicans ATCC 10231): 7.50%; MIC (%) (S. aureus ATCC 6538): 7.50%; ED20 (L929 fibroblasts; 24h exposure): 0.32±0.05%; ED50 (L929 fibroblasts; 24h exposure): 0.56±0.04%; ED80 (L929 fibroblasts; 24h exposure): 0.86±0.14%; ED20 (L929 fibroblasts; 48h exposure): 0.35±0.04%; ED50 (L929 fibroblasts; 48h exposure): 0.64±0.04%; ED80 (L929 fibroblasts; 48h exposure): 1.00±0.13%
NC(CCC(=O)O)C(=O)O.OCCN(CCO)CCO (stereo not shown) [[TEA][Glu]] | 0.0(±0.0) % and 0% | 0.0(±0.0) % and 0% | 4.0(±2.4) % | 4.9(±2.7) % | 5.8% | 21% | 36.3(±2.2) % | 44.5(±1.8) % | 61.4(±1.0) % | 79.4(±0.8) % | 82.4(±0.5) % | 0.0(±0.0) % | 0.0(±0.0) % | 1.8(±0.5) % | 3.6(±0.8) % | 5.4(±1.3) % | 8.9(±0.8) % | 10.7(±1.3) % | 10.7(±1.3) % | 14.3% | Inhibition of the Lepidium sativum seeds germination (ISG, %) [2, 12]: 21.4(±0.5) %; Inhibition of the Lepidium sativum seeds germination (ISG, %) [2, 13]: 33.9%; MIC (%) (E. coli ATCC 8739): 7.50%; MBC (%) (E. coli ATCC 8739): 15%; MIC (%) (C. albicans ATCC 10231): 15%; MIC (%) (S. aureus ATCC 6538): 15%

— PMC12029836, “Phytotoxicity, Cytotoxicity, and Antimicrobial Activity of Triethanolammonium Amino Acids Salts” (Molecules, 2025)
